{
  "source": "paper PMC11048033",
  "about": "“Dual Anti-Inflammatory and Anticancer Activity of Novel 1,5-Diaryl Pyrazole Derivatives: Molecular Modeling, Synthesis, In Vitro Activity, and Dynamics Study” (Biomedicines, 2024)",
  "key": {"[1]": {"molecular_target": "T1, Human COX-2 (Homo sapiens, UniProt P35354)", "T1 construct": "purchased Cayman Chemicals 701230", "T1 sequence (P35354 18-604)": "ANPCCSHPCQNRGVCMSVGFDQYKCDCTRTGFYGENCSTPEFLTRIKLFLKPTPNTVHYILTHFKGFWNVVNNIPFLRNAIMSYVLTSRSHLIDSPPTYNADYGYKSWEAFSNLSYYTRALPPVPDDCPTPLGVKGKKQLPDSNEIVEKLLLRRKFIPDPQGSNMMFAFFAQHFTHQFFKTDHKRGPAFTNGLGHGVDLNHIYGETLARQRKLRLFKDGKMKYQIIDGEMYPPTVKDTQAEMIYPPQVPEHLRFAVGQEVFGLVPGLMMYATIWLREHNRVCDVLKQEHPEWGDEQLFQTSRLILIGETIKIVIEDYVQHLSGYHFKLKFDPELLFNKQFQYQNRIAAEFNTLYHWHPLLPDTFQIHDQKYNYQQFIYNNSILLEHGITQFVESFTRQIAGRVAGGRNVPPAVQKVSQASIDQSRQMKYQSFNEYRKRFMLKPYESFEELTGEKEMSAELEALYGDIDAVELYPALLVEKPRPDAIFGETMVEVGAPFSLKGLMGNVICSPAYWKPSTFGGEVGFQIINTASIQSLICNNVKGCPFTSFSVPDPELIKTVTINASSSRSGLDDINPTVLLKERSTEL", "assay": "In vitro COX-2 enzymatic assay (Cayman COX (human) Inhibitor Screening Assay Kit)", "format": "biochemical", "description": "The ability of the compounds to inhibit COX -2 (IC50 values, µM) was determined by using a “COX (human) Inhibitor Screening Assay Kit” procured from Cayman Chemicals (catalog number 701230). With a slight modification in the method as defined in the reference, the COX-2 inhibition assay was performed. Using the percent conversion of arachidonic acid (AA) to PGH2, the enzyme activity was calculated. By enzyme immunoassay PGF2α, which is produced from PGH2 by reduction with stannous chloride, is calculated. The test compounds’ stock solutions are prepared by dissolving in a minimum amount of DMSO. Human COX-2 (10 µL) in the presence of 10 µL of heme was suspended in 0.1M Tris-HCl buffer (pH 8.0) which contains 2 mM phenol and 5 mM EDTA. This was added to various concentrations of test compounds and, on incubating the solutions at 37 °C for 5 min, 10 µL of AA solution were added. Later, the COX reaction was stopped by adding 1M HCl (50 µL) after 2 min. The intensity of the yellow color which is produced as the product of the enzymatic reaction is determined spectrophotometrically. The percent inhibition was calculated by comparing the compound treated to different control incubations. […] The determinations are done in triplicate and the IC50 (µM) was determined using the concentration–inhibition response curve.\nDuring the initiation of the inflammatory process, the COX enzyme plays a vital role in the progression of inflammatory response. The inflammatory mediators that arise due to the action of COX lead to the chemoattraction of neutrophils, macrophages, eosinophils, etc. […] This was carried out with the help of a COX (human) inhibitor screening assay kit (Item no. 701230) from Cayman chemicals. […] A test substance concentration was considered to be inhibitive when it inhibited human COX-1 or COX-2 by 50%. The compound’s selectivity was measured by its selectivity index values, derived as IC50 (COX-1)/IC50 (COX-2)."}, "[2]": {"system": "HEPG2 (human liver) cell line", "assay": "MTT anticancer assay, HepG2", "format": "cell-based", "conditions": "for IC50 against HepG2: MTT", "description": "The in vitro anticancer activity is determined by counting the viable cells that are stained with a vital dye. The MTT technique is an accurate measure of the activity of live cells using mitochondrial dehydrogenases. The target tumor cells A549 (human lung adenocarcinoma) and HEPG2 (human liver) cell lines are procured from the “National Centre for Cell Science” (NCCS, Pune). The sources of reagents like Trypsin, DMEM, Pen strip, and FBS are procured from Himedia. […] The culture medium was prepared, and the MTT assay was performed as per the general procedure described by Mosmann T. et al., [30] and the % viability of the cells was determined.\nThe target compounds tested for in vitro COX-2 were further checked for in vitro anti-cancer activity against A549 (lung cancer) and HepG2 (liver cancer) cell lines using MTT growth inhibition assay. The compounds were tested for cytotoxicity against both the cell lines at concentrations of 6.25, 12.5, 25, 50, and 100 µg/mL. […] Using the graph where % cell viability is plotted versus concentration, the IC50 values are determined with the help of the dose–response regression equation."}},
  "data": [
    {"compound": "NS(=O)(=O)c1ccc(-n2nc(C(=O)NN=Cc3cccc(Oc4ccccc4)c3)cc2-c2ccc(Cl)cc2)cc1", "note": "[Compound T3, 4-(5-(4-chlorophenyl)-3-(2-(3-phenoxybenzylidene) hydrazine-1-carbonyl)-1H-pyrazol-1-yl) benzenesulfonamide]", "values": [
      {"measurement": "% COX-2 Inhibition", "setting": "[1]; 0.781 μg/ml", "result": "55.34 ± 1.03", "unit": "%"},
      {"measurement": "% COX-2 Inhibition", "setting": "[1]; 1.562 μg/ml", "result": "61.82 ± 1.20", "unit": "%"},
      {"measurement": "% COX-2 Inhibition", "setting": "[1]; 3.125 μg/ml", "result": "66.67 ± 0.96", "unit": "%"},
      {"measurement": "% COX-2 Inhibition", "setting": "[1]; 6.25 μg/ml", "result": "71.48 ± 0.78", "unit": "%"},
      {"measurement": "% COX-2 Inhibition", "setting": "[1]; 12.5 μg/ml", "result": "73.95 ± 0.27", "unit": "%"},
      {"measurement": "% COX-2 Inhibition", "setting": "[1]; 25 μg/ml", "result": "76.28 ± 0.70", "unit": "%"},
      {"measurement": "% COX-2 Inhibition", "setting": "[1]; 50 μg/ml", "result": "78.94 ± 0.72", "unit": "%"},
      {"measurement": "% COX-2 Inhibition", "setting": "[1]; 100 μg/ml", "result": "81.06 ± 0.47", "unit": "%"},
      {"measurement": "% COX-2 Inhibition", "setting": "[1]; 250 μg/ml", "result": "85.38 ± 0.73", "unit": "%"},
      {"measurement": "% cell viability", "setting": "[2]; HepG2, 6.25 µg/ml", "result": 84.39, "unit": "%"},
      {"measurement": "% cell viability", "setting": "[2]; HepG2, 12.5 µg/ml", "result": 84.40, "unit": "%"},
      {"measurement": "% cell viability", "setting": "[2]; HepG2, 25 µg/ml", "result": 73.65, "unit": "%"},
      {"measurement": "% cell viability", "setting": "[2]; HepG2, 50 µg/ml", "result": 73.62, "unit": "%"},
      {"measurement": "% cell viability", "setting": "[2]; HepG2, 100 µg/ml", "result": 54.76, "unit": "%"},
      {"measurement": "IC50 against HepG2", "setting": "[2]", "result": "> 100", "unit": "µM"}
    ]},
    {"compound": "Cc1cc(C=NNC(=O)c2cc(-c3ccc(Br)cc3)n(-c3ccc(S(N)(=O)=O)cc3)n2)cc(C)c1OCc1ccccc1", "note": "[Compound T5, 4-(3-(2-(4-(benzyloxy)-3,5-dimethylbenzylidene) hydrazine-1-carbonyl)-5-(4-bromophenyl)-1H-pyrazol-1-yl) benzenesulfonamide]", "values": [
      {"measurement": "Selectivity Index", "setting": "[1]", "result": 7.16},
      {"measurement": "% COX-2 Inhibition", "setting": "[1]; 0.781 μg/ml", "result": "65.66 ± 1.05", "unit": "%"},
      {"measurement": "% COX-2 Inhibition", "setting": "[1]; 1.562 μg/ml", "result": "72.1 ± 6.01", "unit": "%"},
      {"measurement": "% COX-2 Inhibition", "setting": "[1]; 3.125 μg/ml", "result": "78.03 ± 2.98", "unit": "%"},
      {"measurement": "% COX-2 Inhibition", "setting": "[1]; 6.25 μg/ml", "result": "84.28 ± 2.50", "unit": "%"},
      {"measurement": "% COX-2 Inhibition", "setting": "[1]; 12.5 μg/ml", "result": "85.04 ± 2.38", "unit": "%"},
      {"measurement": "% COX-2 Inhibition", "setting": "[1]; 25 μg/ml", "result": "86.71 ± 0.50", "unit": "%"},
      {"measurement": "% COX-2 Inhibition", "setting": "[1]; 50 μg/ml", "result": "87.64 ± 1.43", "unit": "%"},
      {"measurement": "% COX-2 Inhibition", "setting": "[1]; 100 μg/ml", "result": "88.64 ± 0.86", "unit": "%"},
      {"measurement": "% COX-2 Inhibition", "setting": "[1]; 250 μg/ml", "result": "89.35 ± 0.86", "unit": "%"},
      {"measurement": "% cell viability", "setting": "[2]; HepG2, 6.25 µg/ml", "result": 84.40, "unit": "%"},
      {"measurement": "% cell viability", "setting": "[2]; HepG2, 12.5 µg/ml", "result": 73.66, "unit": "%"},
      {"measurement": "% cell viability", "setting": "[2]; HepG2, 25 µg/ml", "result": 73.42, "unit": "%"},
      {"measurement": "% cell viability", "setting": "[2]; HepG2, 50 µg/ml", "result": 54.76, "unit": "%"},
      {"measurement": "% cell viability", "setting": "[2]; HepG2, 100 µg/ml", "result": 39.32, "unit": "%"},
      {"measurement": "concentration at which compound was effective (from % inhibitory values)", "setting": "[2]; HepG2 cell lines", "result": 50, "unit": "µg/mL"},
      {"measurement": "IC50 against HepG2", "setting": "[2]", "result": 66.93, "unit": "µM"}
    ]}
  ]
}
